Experimental data: US7851474B2, “Dipiperazinyl ketones and related analogues” (Neurogen Corporation, priority 2005, dated 2010)

Molecular target: T1, chimeric human H3 receptor (Homo sapiens, UniProt Q9Y5N1, E19D)
T1 construct: made in house; host or cells: Sf9 insect cells (baculovirus infection); P2 membrane preparation
Assay: Chimeric human H3 receptor screening GTP binding assay (inhibition of histamine-stimulated GTP-gamma35S binding, Example 8)
Assay type: biochemical
Settings: 1 h; "+" in Ki of Table II; assay of Example 8; read-out: percent inhibition of agonist-induced GTP-gammaS binding to H3
Description: This Example illustrates a representative screening assay for evaluating inhibition of histamine-stimulated GTP-gamma^35S binding. Such GTP binding activity can be used to identify H3 antagonists and inverse agonists. A compound analyzed in this assay is referred to herein as a “test compound,” and the initial identification of antagonists and inverse agonists is performed using a test compound concentration of 4 μM.
Four independent baculoviral stocks (one directing the expression of the chimeric human H3 receptor and three directing the expression of each of the three subunits of a heterotrimeric G-protein) are used to infect a culture of Sf9 cells as described above. P2 membranes are prepared as described above, and are resuspended by Dounce homogenization (tight pestle) in GTP binding assay buffer (50 mM Tris pH 7.4, 120 mM NaCl, 5 mM MgCl2, 2 mM EGTA, 1 mg/ml BSA, 0.2 mg/ml bacitracin, 0.02 mg/ml aprotinin, 0.01 mg/ml saponin, 10 μM GDP) and added to assay tubes at a concentration of 35 μg protein/reaction tube. Non-radiolabeled test compounds are added to separate reactions at a concentration of 4 μM along with 1 μM histamine (agonist). Reactions are initiated by the addition of 125 pM GTP-gamma^35S with a final assay volume of 0.20 ml.
After a 60-min incubation at room temperature, reactions are terminated by vacuum filtration over GF/C filters (pre-soaked in 50 mM Tris pH 7.4, 120 mM NaCl plus 0.1% BSA) followed by washing with ice-cold buffer (50 mM Tris pH 7.4, 120 mM NaCl). The amount of receptor-bound (and thereby membrane-bound) GTP-gamma^35S is determined by measuring the bound radioactivity, preferably by liquid scintillation spectrometry of the washed filters. Non-specific binding is determined using 10 uM GTP-gammaS and typically represents less than 5 percent of total binding. After subtraction of non-specific binding, data is expressed as percent inhibition of 1 μM histamine signal.
Neutral antagonists are those test compounds that reduce the histamine-stimulated GTP binding activity towards, but not below, baseline levels. In contrast, in the absence of added histamine, inverse agonists reduce the GTP binding activity of the receptor-containing membranes below baseline. Any test compound that elevates GTP binding activity above baseline in the absence of added histamine in this assay is defined as having agonist activity.

T1 sequence (Q9Y5N1 with tags, fused parts or gaps E19D): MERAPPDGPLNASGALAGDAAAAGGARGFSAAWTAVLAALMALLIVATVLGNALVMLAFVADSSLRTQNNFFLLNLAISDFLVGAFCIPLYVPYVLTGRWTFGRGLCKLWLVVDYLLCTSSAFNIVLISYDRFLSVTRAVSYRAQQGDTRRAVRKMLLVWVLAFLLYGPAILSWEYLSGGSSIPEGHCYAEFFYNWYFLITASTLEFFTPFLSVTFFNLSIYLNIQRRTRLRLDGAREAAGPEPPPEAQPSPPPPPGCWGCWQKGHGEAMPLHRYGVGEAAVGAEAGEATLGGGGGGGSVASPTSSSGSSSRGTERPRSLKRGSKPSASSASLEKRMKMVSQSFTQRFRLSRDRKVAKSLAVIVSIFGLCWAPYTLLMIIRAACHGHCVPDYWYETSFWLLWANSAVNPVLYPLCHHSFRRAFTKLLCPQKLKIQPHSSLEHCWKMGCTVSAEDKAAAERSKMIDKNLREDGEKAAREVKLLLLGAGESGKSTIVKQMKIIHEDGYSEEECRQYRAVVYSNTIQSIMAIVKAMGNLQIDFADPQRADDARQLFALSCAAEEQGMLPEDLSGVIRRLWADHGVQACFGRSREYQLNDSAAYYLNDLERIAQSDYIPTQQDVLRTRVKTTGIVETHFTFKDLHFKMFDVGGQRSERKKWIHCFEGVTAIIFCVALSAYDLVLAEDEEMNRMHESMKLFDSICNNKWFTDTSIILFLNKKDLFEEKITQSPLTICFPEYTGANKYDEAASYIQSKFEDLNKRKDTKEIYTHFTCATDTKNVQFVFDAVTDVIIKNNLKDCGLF

inhibition at 4 µM | Compound
> 90% | COc1cccc(/C=C/C(=O)N2CCN(CC(=O)N3CCN(C4CCC4)CC3)CC2)c1OC [Compound 517, 1-cyclobutyl-4-({4-[(2E)-3-(2,3-dimethoxyphenyl)prop-2-enoyl]piperazin-1-yl}acetyl)piperazine]
> 90% | Cc1ccc(C(C(=O)N2CCN(CC(=O)N3CCN(C4CCC4)CC3)CC2)c2ccccc2)cc1 (stereo not shown) [Compound 565, 1-cyclobutyl-4-({4-[(4-methylphenyl)(phenyl)acetyl]piperazin-1-yl}acetyl)piperazine]
> 90% | CC(Oc1ccc(Cl)cc1Cl)C(=O)N1CCN(CC(=O)N2CCN(C3CCC3)CC2)CC1 (stereo not shown) [Compound 572, 1-cyclobutyl-4-({4-[2-(2,4-dichlorophenoxy)propanoyl]piperazin-1-yl}acetyl)piperazine]
> 90% | Cc1oc(-c2ccc(Cl)cc2)cc1C(=O)N1CCN(CC(=O)N2CCN(C3CCC3)CC2)CC1 [Compound 470, 1-[5-(4-chlorophenyl)-2-methyl-3-furoyl]-4-[2-(4-cyclobutylpiperazin-1-yl)-2-oxoethyl]piperazine]
> 90% | C=CCSc1ncccc1C(=O)N1CCN(CC(=O)N2CCN(C3CCC3)CC2)CC1 [Compound 475, 1-{[2-(allythio)pyridin-3-yl]carbonyl}-4-[2-(4-cyclobutylpiperazin-1-yl)-2-oxoethyl]piperazine]

Compound | inhibition at 4 µM
COc1ccc(CC(=O)N2CCN(CC(=O)N3CCN(C4CCC4)CC3)CC2)cc1 [Compound 563, 1-cyclobutyl-4-({4-[(4-methoxyphenyl)acetyl]piperazin-1-yl}acetyl)piperazine] | > 90%
Cc1ccc(OCC(=O)N2CCN(CC(=O)N3CCN(C4CCC4)CC3)CC2)c(C)c1 [Compound 508, 1-cyclobutyl-4-({4-[(2,4-dimethylphenoxy)acetyl]piperazin-1-yl}acetyl)piperazine] | > 90%
O=C(Cc1cccc(F)c1)N1CCN(CC(=O)N2CCN(C3CCC3)CC2)CC1 [Compound 550, 1-cyclobutyl-4-({4-[(3-fluorophenyl)acetyl]piperazin-1-yl}acetyl)piperazine] | > 90%

Same assay, conditions: 1 h; Table II "Ki", symbol "+": assay described in Example 8; read-out: percent inhibition of agonist-induced GTP-gammaS binding to H3

inhibition at 4 µM | Compound
> 90% | Nc1ccccc1C(=O)N1CCN(CC(=O)N2CCN(C3CCC3)CC2)CC1 [Compound 890, 2-({4-[2-(4-cyclobutylpiperazin-1-yl)-2-oxoethyl]piperazin-1-yl}carbonyl)aniline]
> 90% | Cc1cnc(C(=O)N2CCN(CC(=O)N3CCN(C4CCC4)CC3)CC2)cn1 [Compound 894, 2-({4-[2-(4-cyclobutylpiperazin-1-yl)-2-oxoethyl]piperazin-1-yl}carbonyl)-5-methylpyrazine]
> 90% | CNc1ccccc1C(=O)N1CCN(CC(=O)N2CCN(C3CCC3)CC2)CC1 [Compound 891, 2-({4-[2-(4-cyclobutylpiperazin-1-yl)-2-oxoethyl]piperazin-1-yl}carbonyl)-N-methylaniline]
> 90% | CCn1c(C(=O)N2CCN(CC(=O)N3CCN(C4CCC4)CC3)CC2)cc2ccccc21 [Compound 888, 2-({4-[2-(4-cyclobutylpiperazin-1-yl)-2-oxoethyl]piperazin-1-yl}carbonyl)-1-ethyl-1H-indole]
> 90% | CC(C)Oc1ccc(C(=O)N2CCN(CC(=O)N3CCN(C4CCC4)CC3)CC2)cc1 [Compound 776, 1-cyclobutyl-4-{[4-(4-isopropoxybenzoyl)piperazin-1-yl]acetyl}piperazine]

Same assay, conditions: 1 h; Table II, "+" in the column headed Ki; assay of Example 8; read-out: percent inhibition of agonist-induced GTP-gammaS binding to H3

Compound | inhibition at 4 µM
O=C(Cc1cccc(C(F)(F)F)c1)N1CCN(CC(=O)N2CCN(C3CCC3)CC2)CC1 [Compound 627, 1-cyclobutyl-4-[(4-{[3-(trifluoromethyl)phenyl]acetyl}piperazin-1-yl)acetyl]piperazine] | > 90%
CSc1ccccc1C(=O)N1CCN(CC(=O)N2CCN(C3CCC3)CC2)CC1 [Compound 577, 1-cyclobutyl-4-({4-[2-(methylthio)benzoyl]piperazin-1-yl}acetyl)piperazine] | > 90%
O=C(Cc1ccc(C(F)(F)F)cc1)N1CCN(CC(=O)N2CCN(C3CCC3)CC2)CC1 [Compound 631, 1-cyclobutyl-4-[(4-{[4-(trifluoromethyl)phenyl]acetyl}piperazin-1-yl)acetyl]piperazine] | > 90%
O=C(Cc1cccc2ccccc12)N1CCN(CC(=O)N2CCN(C3CCC3)CC2)CC1 [Compound 663, 1-cyclobutyl-4-{[4-(1-naphthylacetyl)piperazin-1-yl]acetyl}piperazine] | > 90%
O=C(CN1CCN(C(=O)c2ccc(OC(F)F)cc2)CC1)N1CCN(C2CCC2)CC1 [Compound 596, 1-cyclobutyl-4-({4-[4-(difluoromethoxy)benzoyl]piperazin-1-yl}acetyl)piperazine] | > 90%

Next, values leading:

inhibition at 4 µM | Compound
> 90% | Cc1ccccc1C(=O)N1CCN(CC(=O)N2CCN(C3CCC3)CC2)CC1 [Compound 714, 1-cyclobutyl-4-{[4-(2-methylbenzoyl)piperazin-1-yl]acetyl}piperazine]
> 90% | COc1ccc(C(=O)N2CCN(CC(=O)N3CCN(C4CCC4)CC3)CC2)cc1F [Compound 748, 1-cyclobutyl-4-{[4-(3-fluoro-4-methoxybenzoyl)piperazin-1-yl]acetyl}piperazine]
> 90% | O=C(CN1CCN(C(=O)c2cccc3ccccc23)CC1)N1CCN(C2CCC2)CC1 [Compound 662, 1-cyclobutyl-4-{[4-(1-naphthoyl)piperazin-1-yl]acetyl}piperazine]
> 90% | Cc1onc(-c2c(Cl)cccc2Cl)c1C(=O)N1CCN(CC(=O)N2CCN(C3CCC3)CC2)CC1 [Compound 624, 1-cyclobutyl-4-[(4-{[3-(2,6-dichlorophenyl)-5-methylisoxazol-4-yl]carbonyl}piperazin-1-yl)acetyl]piperazine]

Same assay, conditions: 1 h; Table II; assay of Example 8; "+" in Ki; read-out: percent inhibition of agonist-induced GTP-gammaS binding to H3

inhibition at 4 µM | Compound
> 90% | CNc1ccc(C(=O)N2CCN(CC(=O)N3CCN(C4CCC4)CC3)CC2)cc1 [Compound 1088]

Same assay, conditions: 1 h; assay described in Example 8; symbol + in column headed Ki of Table II; read-out: percent inhibition of agonist-induced GTP-gammaS binding to H3

inhibition at 4 µM | Compound
> 90% | O=C(/C=C/c1ccccc1Cl)N1CCN(CC(=O)N2CCN(C3CCC3)CC2)CC1 [Compound 389, 1-[(2E)-3-(2-chlorophenyl)prop-2-enoyl]-4-[2-(4-cyclobutylpiperazin-1-yl)-2-oxoethyl]piperazine]
> 90% | Cc1cc(C(=O)N2CCN(CC(=O)N3CCN(C4CCC4)CC3)CC2)n(C(C)(C)C)n1 [Compound 377, 1-[(1-tert-butyl-3-methyl-1H-pyrazol-5-yl)carbonyl]-4-[2-(4-cyclobutylpiperazin-1-yl)-2-oxoethyl]piperazine]
> 90% | O=C(/C=C/c1cccc(Cl)c1)N1CCN(CC(=O)N2CCN(C3CCC3)CC2)CC1 [Compound 390, 1-[(2E)-3-(3-chlorophenyl)prop-2-enoyl]-4-[2-(4-cyclobutylpiperazin-1-yl)-2-oxoethyl]piperazine]
> 90% | O=C(CN1CCN(C(=O)c2ccc(Cl)s2)CC1)N1CCN(C2CCC2)CC1 [Compound 414, 1-[(5-chloro-2-thienyl)carbonyl]-4-[2-(4-cyclobutylpiperazin-1-yl)-2-oxoethyl]piperazine]

Compound | inhibition at 4 µM
Cc1cc(Cl)ccc1OCC(=O)N1CCN(CC(=O)N2CCN(C3CCC3)CC2)CC1 [Compound 405, 1-[(4-chloro-2-methylphenoxy)acetyl]-4-[2-(4-cyclobutylpiperazin-1-yl)-2-oxoethyl]piperazine] | > 90%
CCCCOc1ccccc1C(=O)N1CCN(CC(=O)N2CCN(C3CCC3)CC2)CC1 [Compound 272, 1-(2-butoxybenzoyl)-4-[2-(4-cyclobutylpiperazin-1-yl)-2-oxoethyl]piperazine] | > 90%
CCCCOc1ccc(C(=O)N2CCN(CC(=O)N3CCN(C4CCC4)CC3)CC2)cc1 [Compound 340, 1-(4-butoxybenzoyl)-4-[2-(4-cyclobutylpiperazin-1-yl)-2-oxoethyl]piperazine] | > 90%

Same assay, conditions: 1 h; assay of Example 8; "+" in Ki of Table II; read-out: percent inhibition of agonist-induced GTP-gammaS binding to H3

inhibition at 4 µM | Compound
> 90% | Nc1cc(Cl)ccc1C(=O)N1CCN(CC(=O)N2CCN(C3CCC3)CC2)CC1 [Compound 1163, 5-chloro-2-({4-[2-(4-cyclobutylpiperazin-1-yl)-2-oxoethyl]piperazin-1-yl}carbonyl)aniline]
